The subject of assay [1] is Swiss Webster fracture-bearing mice (healed femur). Description: postmortem 4 point bend of the healed femur. Format: in vivo. As to conditions: 3 weeks. The source says:
All in vivo data included herein are from Swiss Webster mice. All mice received an osteotomy on their right femur and received subcutaneous drug administration daily for either 2,3 or 4 weeks, or 17 days, as indicated, for each compound. 1× concentration represents 1 nmol/day, 10× represents 10 nmol/day, 100× represents 100 nmol/day most studies have an n of 5.
The term “Peak Load” means a postmortem 4 point bend of the healed femur. Peak load represents the maximum force the healed femur withstood before it refractured.
The targeted conjugates were synthesized using standard Fmoc solid-phase peptide synthesis, as described above. To ensure the conjugates' activity, mouse pre-osteoblast ([…]) cells were treated with the targeted and untargeted compounds for three days at concentrations from 1 pM to 100 nM. After three days of treatment, the cells were harvested, and the RNA was purified from the cells. Expression levels of ALP, RUNx2 (transcription factor for osteoblast differentiation), osterix (OSX), osteopontin (OPN), collagen 1A (Col-1A), OPG, RANKL, sclerostin gene (SOST), and OC were quantified via quantitative reverse transcription polymerase chain reaction (RT-qPCR). Once the biological activity of the conjugates was confirmed, they were tested in vivo in a fracture model. Aseptic surgical techniques were used to place a 23-gage needle as in intramedullary nail in the femur of anesthetized, 12-week-old Swiss Webster mice for internal fixation before fracture. Femur fractures were induced using a drop weight fracture device from RISystem. The mice received buprenorphine for three days post fracture. The mice were dosed subcutaneously each day for three weeks or 17 days. Fracture healing was assessed using microCT (Scanco Medical Ag). Morphometric parameters were quantified in the 100 widest slices of the fracture callus. Trabecular thickness (Tb.Th.), trabecular spacing (Tb.Sp.), total volume (TV), and volume of calcified callus (BV) were calculated. Fractured femurs were tested for strength in a four-point bend to failure using an Electro Force TestBench (TA Instruments). Lower supports were 10 mm apart on the anterior face of the femur in contact with the proximal and distal diaphysis. Upper supports were 4 mm apart and spanned the entire fracture callus on the diaphysis. Force was applied from the posterior face of the femur with a displacement rate of 0.3 mm/sec. Peak load, yield load, stiffness, displacement post yield, work to fracture, and deformation data were generated. Statistical analysis was performed using a two-way analysis of variance (ANOVA) and a Tukey post-hoc analysis with significance reported at the 95% confidence level. All animal experiments were performed in accordance with protocols approved by Purdue University's Institutional Animal Care and Use Committee (IACUC).

Assay [2] deals with Swiss Webster fracture-bearing mice (fracture callus). Description: micro CT of the fracture callus in the femur fracture model. Format: in vivo. Particulars: 3 weeks.
Where [3] appears, read: 1, 10 and 100 nmol daily s.c., n=5.

Where no end group is shown, it is not given here. [ ]: non-standard residue; d: D form. minipeg = minipeg spacer

“P-15_mp4_(D)E10: SEQ ID NO: 23, a P15 fragment connect via 4 peg2 spacers to (D)E10 bone targeting ligand (HGTPGPQGIAGQRGVVEEEEEEEEEE; 4 PEG2 spacers; D-glutamic acids; P15_mp4_e10)”: in assay [1] (setting [3]), the “Max load (peak load)” value was “raises bone strength” and the Work to fracture result is recorded as “raises bone strength”. In assay [2] (setting [3]), the “BV (bone volume)” value is on record as “raises bone mineralization” and the BV/TV result is given as “raises bone density”.

“CTC_mp4_(D)E10: SEQ ID NO: 21, CTC linked via 4 minipegs to 10 (D) glutamic acids (H[dE][dE][dE][dE][dE][dE][dE][dE][dE][dE][minipeg][minipeg][minipeg][minipeg]IAGVGGEKSGGF)”: in assay [1] (1 and 10 nmol daily s.c., n=10), the “Max load (peak load)” value is “raises bone strength” and the Work to fracture result was “raises bone strength”. Also, in assay [2] (1 and 10 nmol daily s.c., n=10), the BV/TV entry was “raises bone density”.

On to “CBM(1-19)_D10: SEQ ID NO: 31, truncated version (1-19) of the collagen binding motif of human osteopontin targeted by D10 (HDDDDDDDDDDGLRSKSKKFRRPDIQYPDA; CBM(1-19)-D10 collagen binding motif)”, for which the “Max load (peak load)” value in assay [1] (setting [3]) is listed as “improves bone strength”. In assay [2] (setting [3]), the BV/TV result is on record as “raises bone density” and the “Tbth (trabecular thickness)” value is given as “raises bone quality”.

(Values after patent publication US20210213135A1 (Purdue Research Foundation, priority 2018, published 2021).)
